Assay results from patent publication US20060135773A1, “Trisubstituted nitrogen modulators of tyrosine phosphatases” (priority 2004, published 2006).
pIC50: −log10 of the molar value.

Target: T1, PTP-1B (Homo sapiens, UniProt P18031)
T1 construct: PTP-1B (purified, 1 mg/mL) as a 1:250 dilution
T1 sequence (P18031 1-321 limits assumed): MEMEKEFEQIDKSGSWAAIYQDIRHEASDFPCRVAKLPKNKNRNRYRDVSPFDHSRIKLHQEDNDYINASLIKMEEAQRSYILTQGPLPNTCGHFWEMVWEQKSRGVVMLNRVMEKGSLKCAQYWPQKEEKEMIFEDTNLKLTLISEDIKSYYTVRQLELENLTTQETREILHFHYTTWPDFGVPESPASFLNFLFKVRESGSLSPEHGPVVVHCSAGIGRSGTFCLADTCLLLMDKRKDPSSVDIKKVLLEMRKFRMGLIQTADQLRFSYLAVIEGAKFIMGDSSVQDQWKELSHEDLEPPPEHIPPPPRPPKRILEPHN
Assay: pNPP tyrosine phosphatase inhibition assay, PTP-1B
Type: biochemical
Details: pNPP assay, PTP-1B; read-out: Activity Class (IC50 ranges)
Procedure, shortened: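 Test compounds were screened at two final levels, 31.3 and 10 µM, against 4 µg/mL purified PTP-1B. The substrate was 10 mM p-nitrophenyl phosphate, with incubation for 10 min at 30°C before a K2CO3 quench. Activity was taken from A405.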

Molecule | pIC50
COc1ccccc1S(=O)(=O)N(Cc1ccc(-c2cccc(S(C)(=O)=O)c2)cc1)Cc1ccc(C(F)(F)P(=O)(O)O)c(Cl)c1 [Compound 148, [(2-Chloro-4-{[(3′-methanesulfonyl-biphenyl-4-ylmethyl)-(2-methoxy-benzenesulfonyl)-amino]-methyl}-phenyl)-difluoro-methyl]-phosphonic acid] | 6.60 to 7.00
CCNc1ccc(S(=O)(=O)C(F)(F)F)cc1NC(=O)C1CCN(S(=O)(=O)c2cccs2)CC1 [Compound 88, 1-(Thiophene-2-sulfonyl)-piperidine-4-carboxylic acid (2-ethylamino-5-trifluoromethanesulfonyl-phenyl)-amide] | < 4.60
2,2-Dimethyl-propionic acid [(2-bromo-4-{[(4-methanesulfonyl-phenyl)-(2-methoxy-benzenesulfonyl)-amino]-methyl}-phenyl)-difluoro-methyl]-hydroxy-phosphinoyloxymethyl ester [Compound 228] | 4.60 to 5.60
COc1ccccc1S(=O)(=O)N(Cc1ccc(-c2cccc(-c3nn[nH]n3)c2)cc1)Cc1ccc(C(F)(F)P(=O)(O)O)c(Cl)c1 [Compound 47, {[2-Chloro-4-({(2-methoxy-benzenesulfonyl)-[3′-(2H-tetrazol-5-yl)-biphenyl-4-ylmethyl]-amino}-methyl)-phenyl]-difluoro-methyl}-phosphonic acid] | > 7.00
COc1ccccc1S(=O)(=O)N(Cc1ccc(C(=O)O)cc1)Cc1ccc(C(F)(F)P(=O)(O)O)c(Cl)c1 [Compound 233, 4-{[[3-Chloro-4-(difluoro-phosphono-methyl)-benzyl]-(2-methoxy-benzenesulfonyl)-amino]-methyl}-benzoic acid] | 6.60 to 7.00
O=P(O)(O)C(F)(F)c1ccc(CN(Cc2ccc(C(F)(F)P(=O)(O)O)cc2)S(=O)(=O)c2ccc(-c3ccccc3)cc2)cc1 [Compound 66, {[4-({(Biphenyl-4-sulfonyl)-[4-(difluoro-phosphono-methyl)-benzyl]-amino}-methyl)-phenyl]-difluoro-methyl}-phosphonic acid] | 6.30 to 6.60
COc1ccccc1S(=O)(=O)N(Cc1ccc(C(F)(F)P(=O)(O)O)c(Cl)c1)C(Cc1ccccc1)c1ccccc1 (stereo not drawn) [Compound 171, [(2-Chloro-4-{[(1,2-diphenyl-ethyl)-(2-methoxy-benzenesulfonyl)-amino]-methyl}-phenyl)-difluoro-methyl]-phosphonic acid] | 4.60 to 5.60
COc1ccccc1S(=O)(=O)N(Cc1ccc(C(F)(F)P(=O)(O)O)c(Cl)c1)Cc1ccccc1Br [Compound 178, [(4-{[(2-Bromo-benzyl)-(2-methoxy-benzenesulfonyl)-amino]-methyl}-2-chloro-phenyl)-difluoro-methyl]-phosphonic acid] | 6.60 to 7.00
O=C(O)c1ccc(CN(Cc2ccc(C(F)(F)P(=O)(O)O)c(Br)c2)S(=O)(=O)c2ccccc2Cl)cc1 [Compound 107, 4-{[[3-Bromo-4-(difluoro-phosphono-methyl)-benzyl]-(2-chloro-benzenesulfonyl)-amino]-methyl}-benzoic acid] | > 7.00
COC(=O)c1cccc(-c2cccc(CCN(Cc3ccc(C(F)(F)P(=O)(O)O)c(Cl)c3)S(=O)(=O)c3ccccc3OC)c2)c1 [Compound 185, 3′-{2-[[3-Chloro-4-(difluoro-phosphono-methyl)-benzyl]-(2-methoxy-benzenesulfonyl)-amino]-ethyl}-biphenyl-3-carboxylic acid methyl ester] | 6.30 to 6.60
COc1ccccc1S(=O)(=O)N(Cc1ccc(C(F)(F)P(=O)(O)O)c(Br)c1)c1ccc(S(C)(=O)=O)cc1 [Compound 114, [(2-Bromo-4-{[(4-methanesulfonyl-phenyl)-(2-methoxy-benzenesulfonyl)-amino]-methyl}-phenyl)-difluoro-methyl]-phosphonic acid] | 6.60 to 7.00
O=P(O)(O)C(F)(F)c1ccc(CN(Cc2ccc(C(F)(F)P(=O)(O)O)cc2)C2CCCC2)cc1 [Compound 63, {[4-({Cyclopentyl-[4-(difluoro-phosphono-methyl)-benzyl]-amino}-methyl)-phenyl]-difluoro-methyl}-phosphonic acid] | < 4.60
COC(=O)c1ccc(CN(Cc2ccc(C(F)(F)P(=O)(O)O)c(Cl)c2)S(=O)(=O)c2ccccc2)cc1 [Compound 234, 4-({Benzenesulfonyl-[3-chloro-4-(difluoro-phosphono-methyl)-benzyl]-amino}-methyl)-benzoic acid methyl ester] | 6.30 to 6.60
COc1ccccc1S(=O)(=O)N(Cc1ccc(-c2cccc(C#N)c2)cc1)Cc1ccc(C(F)(F)P(=O)(OCOC(=O)C(C)(C)C)OCOC(=O)C(C)(C)C)c(Cl)c1 [Compound 226, 2,2-Dimethyl-propionic acid [(2-chloro-4-{[(3′-cyano-biphenyl-4-ylmethyl)-(2-methoxy-benzenesulfonyl)-amino]-methyl}-phenyl)-difluoro-methyl]-(2,2-dimethyl-propionyloxymethoxy)-phosphinoyloxymethyl ester] | < 4.60
[(4-{[(3′-Carbamoyl-biphenyl-2-ylmethyl)-(2-methoxy-benzenesulfonyl)-amino]-methyl}-2-chloro-phenyl)-difluoro-methyl]-phosphonic acid [Compound 187] | > 7.00
O=P(O)(O)C(F)(F)c1ccc(CN(Cc2ccc(C(F)(F)P(=O)(O)O)cc2)S(=O)(=O)c2cccc(Cl)c2)cc1 [Compound 76, {[4-({(3-Chloro-benzenesulfonyl)-[4-(difluoro-phosphono-methyl)-benzyl]-amino}-methyl)-phenyl]-difluoro-methyl}-phosphonic acid] | 6.30 to 6.60
NC(=O)c1cccc(S(=O)(=O)N(Cc2ccc(C(F)(F)P(=O)(O)O)c(Cl)c2)Cc2ccccc2-c2ccccc2)c1 [Compound 214, [(4-{[Biphenyl-2-ylmethyl-(3-carbamoyl-benzenesulfonyl)-amino]-methyl}-2-chloro-phenyl)-difluoro-methyl]-phosphonic acid] | 6.30 to 6.60
O=P(O)(O)C(F)(F)c1ccc(CN(Cc2ccc(Cl)c(Cl)c2)S(=O)(=O)c2ccccn2)cc1Br [Compound 100, [(2-Bromo-4-{[(3,4-dichloro-benzyl)-(pyridine-2-sulfonyl)-amino]-methyl}-phenyl)-difluoro-methyl]-phosphonic acid] | 6.30 to 6.60
3-{2-Bromo-4-[N-(4-cyanobenzyl)-N-(2-methoxy-benzenesulfonyl)aminomethyl]-phenoxy}-acetic acid [Compound 121] | < 4.60
Methyl 2-(3-{4-[({[4-(difluorophosphonomethyl)-3-chlorophenyl]methyl}[(2-methoxyphenyl)sulfonyl]amino)methyl]phenyl}phenyl)acetate [Compound 191] | > 7.00
COc1ccccc1S(=O)(=O)N(Cc1ccc(C#N)cc1)Cc1ccc(C(O)C(O)C(=O)O)c(Br)c1 (stereo not drawn) [Compound 123, 1,2-dihydroxy-3-{2-Bromo-4-[N-(4-cyanobenzyl)-N-(2-methoxy-benzenesulfonyl)aminomethyl]-phenyl}-propionic acid] | < 4.60
O=P(O)(O)C(F)(F)c1ccc(CN(Cc2ccc(C(F)(F)P(=O)(O)O)cc2)S(=O)(=O)c2ccc(Cl)c(Cl)c2)cc1 [Compound 77, {[4-({(3,4-Dichloro-benzenesulfonyl)-[4-(difluoro-phosphono-methyl)-benzyl]-amino}-methyl)-phenyl]-difluoro-methyl}-phosphonic acid] | 6.30 to 6.60
[(2-Chloro-4-{[(2-chloro-4-fluoro-benzenesulfonyl)-(3′-cyano-biphenyl-4-ylmethyl)-amino]-methyl}-phenyl)-difluoro-methyl]-phosphonic acid [Compound 164] | > 7.00
COc1ccccc1S(=O)(=O)N(Cc1ccc(C#N)cc1)Cc1ccc(Nc2c(O)c(=O)c2=O)cc1 [Compound 135, N-(4-Cyano-benzyl)-N-[4-(2-hydroxy-3,4-dioxo-cyclobut-1-enylamino)-benzyl]-2-methoxy-benzenesulfonamide] | < 4.60
COc1ccccc1S(=O)(=O)N(Cc1ccc(C#N)cc1)Cc1ccc(C=CC(=O)O)c(Br)c1 [Compound 120, 3-{2-Bromo-4-[N-(4-cyanobenzyl)-N-(2-methoxy-benzenesulfonyl)aminomethyl]-phenyl}-acrylic acid] | < 4.60
4-{2-[({[4-(difluorophosphonomethyl)-3-chlorophenyl]methyl}[(2-methoxyphenyl)sulfonyl]amino)methyl]phenyl}benzamide [Compound 199] | > 7.00
CC(=O)N(Cc1ccc(C(F)(F)P(=O)(O)O)cc1)Cc1ccc(C(F)(F)P(=O)(O)O)cc1 [Compound 59, {[4-({Acetyl-[4-(difluoro-phosphono-methyl)-benzyl]-amino}-methyl)-phenyl]-difluoro-methyl}-phosphonic acid] | < 4.60
COc1ccccc1S(=O)(=O)N(Cc1ccc(C(=NO)C(=O)O)cc1)Cc1ccc(S(C)(=O)=O)cc1 [Compound 126, Hydroxyimino-(4-{[(4-methanesulfonyl-benzyl)-(2-methoxy-benzenesulfonyl)-amino]-methyl}-phenyl)-acetic acid] | < 4.60
O=P(O)(O)C(F)(F)c1ccc(CN(c2ccc(Cl)c(Cl)c2)S(=O)(=O)c2ccccc2)cc1Br [Compound 34, [(4-{[Benzenesulfonyl-(3,4-dichloro-phenyl)-amino]-methyl}-2-bromo-phenyl)-difluoro-methyl]-phosphonic acid] | 6.30 to 6.60
(4-{[(4-Cyano-benzyl)-(2-methoxy-benzenesulfonyl)-amino]-methyl}-phenyl)-difluoro-acetic acid [Compound 130] | < 4.60
